Literature values as cited in US20160058814A1, “PLANT EXTRACTS AND RELATED COMPOSITIONS, METHODS AND SYSTEMS” (priority 2014, published 2016).

Conditions: in vivo

In the case of `O=c1ccc2ccccc2o1` [Coumarin, coumarin], the LD50 is given as 275 mg/kg.
